Source: EP0314008A2, “N-substituted aliphatic heterocyclic compounds able to facilitate the passage of active substances through physiological barriers” (priority 1987, dated 1989)
Each block holds one compound with its values, some of them ahead of it.

What was measured:
serotonin = test: Test 74 - Antiserotonin (in vitro), isolated ileal segments; assay type: cell-based, guinea pig; conditions: Cavia porcellus, contractile response to serotonin (1 mcg/ml); for inhibition at 1 µg/mL: Dose 1 γ/ml
Excerpt: Test 74 - Antiserotonin (in vitro):

[1] = test system: skin taken from a "nude" mouse; test: skin permeability test in vitro, skin diffusion cell apparatus, passage of naproxen-Na; conditions: naproxen-Na passage with facilitating substance at 0.5%, second set
Procedure: (§1) This study was carried out by "in vitro" tests using a skin diffusion cell apparatus consisting of two glass segments separated by a layer of skin taken from a "nude" mouse, genetically without hair. Suspensions of the substance to be tested are deposited on the stratum corneum of the skin. The dermic layer dips into a buffer solution from which withdrawals are made at intervals to determine the quantity of substance which has passed through the epidermis.
(§2) 1-dodecylazacycloheptan-2-one (azone) is used as reference standard.
(§3) Suspensions at the required concentrations (0.5 and 1% w/v) are then prepared by ultrasonic treatment three times for 30 seconds in an ice bath with a titanium-tipped ultrasonic generator. The pHs of the 1 % suspensions in 0.1 M pH 7.0 phosphated buffer are as follows:
(§4) The volume of examined suspension applied externally to the skin is 1 ml. The volume of buffer solution in the cell lower chamber is 10 ml. After each withdrawal of 1 ml of solution from the lower chamber, the volume was made up to 10 ml by adding buffer.

[2] = test system: skin taken from a "nude" mouse
Procedure: as §1, §2, §3, §4

histamine = test: Test 73 - Antihistaminic (in vitro), isolated ileal segments; assay type: cell-based, guinea pig; conditions: Cavia porcellus, contractile response to histamine (0.5 mcg/ml)
Excerpt: Test 73 - Antihistaminic (in vitro):
Inhibition of submaximal contractile responses of isolated guinea pig ileal segments, bathed in physiological salt solution, to histamine (0.5 mcg/ml) by more than 80 percent (>80) indicates activity.

LTD4 = test: Test 37 - LTD4 antagonist (in vitro), isolated ileal segments; assay type: cell-based, guinea pig; conditions: Cavia porcellus, contractile response to LTD4 (10 ng/ml)
Excerpt: Test 37 - LTD4 antagonist (in vitro):

Structure (SMILES): CN1CCC(=C2c3ccccc3C=Cc3ccccc32)CC1 [Cyproheptadine, reference compound]
inhibition at 1 µg/mL (serotonin): 85%

Structure (SMILES): CCCCCCCCCCCCN1CC[S+]([O-])CC1 [Example 2, 4-dodecylthiomorpholine-1-oxide]
F.U.a. 355.5 nm ([1]; 3.0 hours): 0.143 F.U.a.
nmoles passed ([1]; 3.0 hours): 366.0 nmol
F.U.a. 355.5 nm ([1]; 5.0 hours): 0.426 F.U.a.
nmoles passed ([1]; 5.0 hours): 1093.0 nmol
F.U.a. 355.5 nm ([1]; 7.0 hours): 0.755 F.U.a.
nmoles passed ([1]; 7.0 hours): 1968.0 nmol
F.U.a. 355.5 nm ([1]; […]): 0.033 F.U.a.
nmoles passed ([1]; […]): 82.5 nmol

results compared with the compound of Example 3 [2]: practically equal results
Structure (SMILES): CCCCCCCCCCCCN1CCSCC1 [Example 1, 4-dodecylthiomorpholine]

Structure (SMILES): CCCCCCCCCC(=O)N1CCSCC1 [Example 5, 4-decanoylthiomorpholide]
inhibition at 0.5 µg/mL (serotonin; Dose 0.5 γ/ml): 68%
inhibition at 1 µg/mL (serotonin): 100%
inhibition at 2.5 µg/mL (serotonin; Dose 2.5 γ/ml): 100%
inhibition at 10 µg/mL (serotonin; Dose 10 γ/ml): 100%
inhibition at 1 µg/mL (histamine; Dose 1 γ/ml): 18%
inhibition at 2.5 µg/mL (histamine; Dose 2.5 γ/ml): 82%
inhibition at 10 µg/mL (histamine; Dose 10 γ/ml): 100%
inhibition at 4 µg/mL (LTD4; Dose 4 γ/ml): 28%
inhibition at 8 µg/mL (LTD4; Dose 8 γ/ml): 75%
